Results from patent US11919901B2 (Syndax Pharmaceuticals, Inc., priority 2021, dated 2024).

Target: Menin-MLL (Homo sapiens (Human), UniProt O00255)
Assay: Determination of binding constants (Ki) to Menin-MLL (HTRF)
Settings: HTRF, 0.25 nM H-FL-Menin, 3.2 nM FITC-MLL-4-43, 24 hr incubation; for Ki: read-out: Menin-MLL Ki HTRF Assay: Ki

Menin-MLL, sequence (O00255 whole entry): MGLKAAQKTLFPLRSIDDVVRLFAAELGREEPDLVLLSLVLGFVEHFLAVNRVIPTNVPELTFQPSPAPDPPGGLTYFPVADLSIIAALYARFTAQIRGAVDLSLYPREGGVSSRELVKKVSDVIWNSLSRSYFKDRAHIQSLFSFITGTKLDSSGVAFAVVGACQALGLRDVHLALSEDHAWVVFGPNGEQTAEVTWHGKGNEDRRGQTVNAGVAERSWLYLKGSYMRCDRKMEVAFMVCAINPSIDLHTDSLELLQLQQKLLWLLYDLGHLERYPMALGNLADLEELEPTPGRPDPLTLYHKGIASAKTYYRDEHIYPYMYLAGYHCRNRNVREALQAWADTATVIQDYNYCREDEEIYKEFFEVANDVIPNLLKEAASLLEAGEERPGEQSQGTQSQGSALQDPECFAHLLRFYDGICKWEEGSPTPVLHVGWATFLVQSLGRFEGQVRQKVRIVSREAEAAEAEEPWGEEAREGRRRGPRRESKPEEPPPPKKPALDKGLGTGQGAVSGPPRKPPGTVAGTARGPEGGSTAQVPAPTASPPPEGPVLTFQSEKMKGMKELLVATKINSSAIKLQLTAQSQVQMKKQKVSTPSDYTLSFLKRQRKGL

## C[C@@H]1COC[C@@H](C)N1C(=O)c1cc(F)ccc1Oc1cncnc1N1CC2(CCN(C[C@@H]3CC[C@@H](NS(C)(=O)=O)CO3)CC2)C1 [Compound 28, N-((3R,6S)-6-((2-(5-(2-((3R,5R)-3,5-dimethylmorpholine-4-carbonyl)-4-fluorophenoxy)pyrimidin-4-yl)-2,7-diazaspiro[3.5]nonan-7-yl)methyl)tetrahydro-2H-pyran-3-yl)methanesulfonamide]
  EC50: < 50 nM
  Ki: < 1 nM

## CCS(=O)(=O)N[C@@H]1CC[C@@H](CN2CCC3(CC2)CN(c2ncncc2Oc2ccc(F)cc2C(=O)N2[C@H](C)COC[C@H]2C)C3)OC1 [Compound 29]
  EC50: < 50 nM
  Ki: < 1 nM

## CC(C)S(=O)(=O)N[C@@H]1CC[C@@H](CN2CCC3(CC2)CN(c2ncncc2Oc2ccc(F)cc2C(=O)N2[C@H](C)COC[C@H]2C)C3)OC1 [Compound 30]
  EC50: < 50 nM
  Ki: < 1 nM

## C[C@@H]1COC[C@@H](C)N1C(=O)c1cc(F)ccc1Oc1cncnc1N1CC2(CCN(C[C@@H]3CC[C@@H](NS(=O)(=O)C4CC4)CO3)CC2)C1 [Compound 31, N-((3R,6S)-6-((2-(5-(2-((3R,5R)-3,5-dimethylmorpholine-4-carbonyl)-4-fluorophenoxy)pyrimidin-4-yl)-2,7-diazaspiro[3.5]nonan-7-yl)methyl)tetrahydro-2H-pyran-3-yl)cyclopropanesulfonamide]
  EC50: < 50 nM
  Ki: < 1 nM

## C[C@@H]1COC[C@@H](C)N1C(=O)c1cc(F)ccc1Oc1cncnc1N1CC2(CCN(C[C@@H]3CC[C@@H](NS(=O)(=O)C4COC4)CO3)CC2)C1 [Compound 32]
  EC50: < 50 nM
  Ki: < 1 nM

## CCS(=O)(=O)N[C@@H]1CC[C@@H](CN2CCC3(CC2)CN(c2ncncc2Oc2ccc(F)cc2C(=O)N(CCOC)C(C)C)C3)OC1 [Compound 35, 2-((4-(7-(((2S,5R)-5-(ethylsulfonamido)tetrahydro-2H-pyran-2-yl)methyl)-2,7-diazaspiro[3.5]nonan-2-yl)pyrimidin-5-yl)oxy)-5-fluoro-N-isopropyl-N-(2-methoxyethyl)benzamide]
  EC50: < 50 nM
  Ki: < 1 nM

## CCS(=O)(=O)N[C@@H]1CC[C@@H](CN2CCC3(CC2)CN(c2ncncc2Oc2ccc(F)cc2C(=O)N2[C@H](C)CCC[C@@H]2C)C3)OC1 [Compound 36, N-((3R,6S)-6-((2-(5-(2-((2S,6R)-2,6-dimethylpiperidine-1-carbonyl)-4-fluorophenoxy)pyrimidin-4-yl)-2,7-diazaspiro[3.5]nonan-7-yl)methyl)tetrahydro-2H-pyran-3-yl)ethanesulfonamide]
  EC50: < 50 nM
  Ki: < 1 nM

## CCCNC(=O)N[C@@H]1CC[C@@H](CN2CCC3(CC2)CN(c2ncncc2Oc2ccc(F)cc2C(=O)N(CC)C(C)C)C3)OC1 [Compound 38, N-ethyl-5-fluoro-N-isopropyl-2-((4-(7-(((2S,5R)-5-(3-propylureido)tetrahydro-2H-pyran-2-yl)methyl)-2,7-diazaspiro[3.5]nonan-2-yl)pyrimidin-5-yl)oxy)benzamide]
  EC50: 50 to 100 nM
  Ki: 1 to 1.5 nM

## CCNC(=O)N[C@@H]1CC[C@@H](CN2CCC3(CC2)CN(c2ncncc2Oc2ccc(F)cc2C(=O)N(CC)C(C)C)C3)OC1 [Compound 39, N-ethyl-2-((4-(7-(((2S,5R)-5-(3-ethylureido)tetrahydro-2H-pyran-2-yl)methyl)-2,7-diazaspiro[3.5]nonan-2-yl)pyrimidin-5-yl)oxy)-5-fluoro-N-isopropylbenzamide]
  EC50: < 50 nM
  Ki: < 1 nM

## CCN(C(=O)c1cc(F)ccc1Oc1cncnc1N1CC2(CCN(C[C@@H]3CC[C@@H](NC(=O)NCC(F)F)CO3)CC2)C1)C(C)C [Compound 41, 2-((4-(7-(((2S,5R)-5-(3-(2,2-difluoroethyl)ureido)tetrahydro-2H-pyran-2-yl)methyl)-2,7-diazaspiro[3.5]nonan-2-yl)pyrimidin-5-yl)oxy)-N-ethyl-5-fluoro-N-isopropylbenzamide]
  EC50: 50 to 100 nM
  Ki: < 1 nM

## CCN(C(=O)c1cc(F)ccc1Oc1cncnc1N1CC2(CCN(C[C@@H]3CC[C@@H](NC(=O)NCC4CC4)CO3)CC2)C1)C(C)C [Compound 42, 2-((4-(7-(((2S,5R)-5-(3-(cyclopropylmethyl)ureido)tetrahydro-2H-pyran-2-yl)methyl)-2,7-diazaspiro[3.5]nonan-2-yl)pyrimidin-5-yl)oxy)-N-ethyl-5-fluoro-N-isopropylbenzamide]
  EC50: > 100 nM
  Ki: 1 to 1.5 nM

## CCS(=O)(=O)N[C@@H]1CC[C@@H](CN2CCC3(CC2)CN(c2ncncc2Oc2ccc(F)cc2C(=O)N(C(C)C)[C@@H]2CCOC2)C3)OC1 [Compound 46, 2-((4-(7-(((2S,5R)-5-(ethylsulfonamido)tetrahydro-2H-pyran-2-yl)methyl)-2,7-diazaspiro[3.5]nonan-2-yl)pyrimidin-5-yl)oxy)-5-fluoro-N-isopropyl-N-((R)-tetrahydrofuran-3-yl)benzamide]
  EC50: < 50 nM
  Ki: < 1 nM

## CCS(=O)(=O)N[C@@H]1CC[C@@H](CN2CCC3(CC2)CN(c2ncncc2Oc2ccc(F)cc2C(=O)N(C(C)C)C2COC2)C3)OC1 [Compound 48, 2-((4-(7-(((2S,5R)-5-(ethylsulfonamido)tetrahydro-2H-pyran-2-yl)methyl)-2,7-diazaspiro[3.5]nonan-2-yl)pyrimidin-5-yl)oxy)-5-fluoro-N-isopropyl-N-(oxetan-3-yl)benzamide]
  EC50: < 50 nM
  Ki: < 1 nM

## CCS(=O)(=O)N[C@@H]1CC[C@@H](CN2CCC3(CC2)CN(c2ncncc2Oc2ccc(F)cc2C(=O)N(C(C)C)[C@H]2C[C@@H](O)C2)C3)OC1 [Compound 50, 2-((4-(7-(((2S,5R)-5-(ethylsulfonamido)tetrahydro-2H-pyran-2-yl)methyl)-2,7-diazaspiro[3.5]nonan-2-yl)pyrimidin-5-yl)oxy)-5-fluoro-N-((1s,3s)-3-hydroxycyclobutyl)-N-isopropylbenzamide]
  EC50: < 50 nM
  Ki: < 1 nM

## COCCN(C(=O)c1cc(F)ccc1Oc1cncnc1N1CC2(CCN(C[C@@H]3CC[C@@H](NS(=O)(=O)C4CC4)CO3)CC2)C1)C(C)C [Compound 51, 2-((4-(7-(((2S,5R)-5-(cyclopropanesulfonamido)tetrahydro-2H-pyran-2-yl)methyl)-2,7-diazaspiro[3.5]nonan-2-yl)pyrimidin-5-yl)oxy)-5-fluoro-N-isopropyl-N-(2-methoxyethyl)benzamide]
  EC50: < 50 nM

## CC(C)N(C)C(=O)c1cc(F)ccc1Oc1cncnc1N1CC2(CCN(C[C@@H]3CC[C@@H](NS(=O)(=O)c4ccn(C)n4)CO3)CC2)C1 [Compound 53, Fluoro-N-isopropyl-N-methyl-2-((4-(7-(((2S,5R)-5-((1-methyl-1H-pyrazole)-3-sulfonamido)tetrahydro-2H-pyran-2-yl)methyl)-2,7-diazaspiro[3.5]nonan-2-yl)pyrimidin-5-yl)oxy)benzamide]
  Ki: < 1 nM

## Cc1nc(S(=O)(=O)N[C@@H]2CC[C@@H](CN3CCC4(CC3)CN(c3ncncc3Oc3ccc(F)cc3C(=O)N(C)C(C)C)C4)OC2)cs1 [Compound 54, 5-Fluoro-N-isopropyl-N-methyl-2-((4-(7-(((2S,5R)-5-((2-methylthiazole)-4-sulfonamido)tetrahydro-2H-pyran-2-yl)methyl)-2,7-diazaspiro[3.5]nonan-2-yl)pyrimidin-5-yl)oxy)benzamide]
  Ki: < 1 nM

## CCN(C(=O)c1cc(F)ccc1Oc1cncnc1N1CC2(CCN(C[C@@H]3CC[C@@H](NS(=O)(=O)c4ccc(C)cc4)CO3)CC2)C1)C(C)C [Compound 55, N-Ethyl-5-fluoro-N-isopropyl-2-((4-(7-(((2S,5R)-5-((4-methylphenyl)sulfonamido)tetrahydro-2H-pyran-2-yl)methyl)-2,7-diazaspiro[3.5]nonan-2-yl)pyrimidin-5-yl)oxy)benzamide]
  EC50: < 50 nM
  Ki: < 1 nM

## CCN(C(=O)c1cc(F)ccc1Oc1cncnc1N1CC2(CCN(C[C@@H]3CC[C@@H](NS(=O)(=O)c4ccccc4C)CO3)CC2)C1)C(C)C [Compound 56, N-Ethyl-5-fluoro-N-isopropyl-2-((4-(7-(((2S,5R)-5-((2-methylphenyl)sulfonamido)tetrahydro-2H-pyran-2-yl)methyl)-2,7-diazaspiro[3.5]nonan-2-yl)pyrimidin-5-yl)oxy)benzamide]
  EC50: < 50 nM
  Ki: < 1 nM

## CCN(C(=O)c1cc(F)ccc1Oc1cncnc1N1CC2(CCN(C[C@@H]3CC[C@@H](NS(=O)(=O)c4cccc(Cl)c4)CO3)CC2)C1)C(C)C [Compound 57, 2-((4-(7-(((2S,5R)-5-((3-Chlorophenyl)sulfonamido)tetrahydro-2H-pyran-2-yl)methyl)-2,7-diazaspiro[3.5]nonan-2-yl)pyrimidin-5-yl)oxy)-N-ethyl-5-fluoro-N-isopropylbenzamide]
  EC50: < 50 nM
  Ki: < 1 nM

## CCN(C(=O)c1cc(F)ccc1Oc1cncnc1N1CC2(CCN(C[C@@H]3CC[C@@H](NS(=O)(=O)c4cccc(C)c4)CO3)CC2)C1)C(C)C [Compound 60, N-ethyl-5-fluoro-N-isopropyl-2-((4-(7-(((2S,5R)-5-((3-methylphenyl)sulfonamido)tetrahydro-2H-pyran-2-yl)methyl)-2,7-diazaspiro[3.5]nonan-2-yl)pyrimidin-5-yl)oxy)benzamide]
  EC50: < 50 nM
  Ki: < 1 nM

## CCN(C(=O)c1cc(F)ccc1Oc1cncnc1N1CC2(CCN(C[C@@H]3CC[C@@H](NS(=O)(=O)c4ccc(Cl)cc4)CO3)CC2)C1)C(C)C [Compound 61, 2-((4-(7-(((2S,5R)-5-((4-Chlorophenyl)sulfonamido)tetrahydro-2H-pyran-2-yl)methyl)-2,7-diazaspiro[3.5]nonan-2-yl)pyrimidin-5-yl)oxy)-N-ethyl-5-fluoro-N-isopropylbenzamide]
  EC50: < 50 nM
  Ki: < 1 nM

## CCN(C(=O)c1cc(F)ccc1Oc1cncnc1N1CC2(CCN(C[C@@H]3CC[C@@H](NS(=O)(=O)C4CCOCC4)CO3)CC2)C1)C(C)C [Compound 67, N-Ethyl-5-fluoro-N-isopropyl-2-((4-(7-(((2S,5R)-5-((tetrahydro-2H-pyran)-4-sulfonamido)tetrahydro-2H-pyran-2-yl)methyl)-2,7-diazaspiro[3.5]nonan-2-yl)pyrimidin-5-yl)oxy)benzamide]
  EC50: < 50 nM
  Ki: < 1 nM
